# Measured values reported in patent publication US20220409617A1, “Drug Formulations and Methods of Treatment for Metabolic Disorders” (The Regents of the University of California, priority 2019, published 2022).
# What was measured:
# [1] = molecular target: ARF6 (Homo sapiens, UniProt P62330); conditions: cited from earlier work
# [2] = test system: GLUT1; conditions: cited from earlier work
# [3] = cited from earlier work
# [4] = Fasting blood glucose and oral glucose tolerance test in HFD-fed mice; type: in vivo, mouse
# Protocol: Mice were fasted for 6 h prior to blood glucose testing at ZT10. When sphingolipid-like compound 893 treatment was combined with an OGTT, mice were treated at ZT6. Once baseline fasting blood glucose was determined using a handheld blood glucose meter (Prodigy Diabetes Care, Charlotte, N.C.) and a drop of blood collected from a tail vein nick, mice were gavaged with an oral glucose solution (20% w/v in water, 2 g/kg bodyweight) and blood glucose measured in a drop of tail vein blood at 0, 15, 30, 60 and 120 min. The area under the curve was determined using Graphpad Prism software.
# [5] = test system: brain mitochondria; experiment: Brain (hypothalamus) mitochondrial morphology, citrate synthase staining; type: in vivo, mouse; conditions: single oral dose 120 mg/kg, HFD-fed mice
# Protocol: Preventing mitochondrial fission in the liver improves insulin sensitivity in mice with diet-induced obesity, while blocking fission in anorexigenic hypothalamic POMC neurons reduces food intake by restoring leptin sensitivity (A. Santoro, et al., 2017; and M. Schneeberger, et al., 2013, cited supra). To determine whether sphingolipid-like compound 893 was also effective in the hypothalamus, mitochondrial morphology was assessed in the brains of the same mice evaluated in FIG. 13. Due to the increased time required to remove the organ, brain mitochondria were visualized in fixed tissues by immunofluorescence microscopy rather than by NADH/NADPH autofluorescence. […] Sphingolipid-like compound 893 reversed these HFD-induced changes in mitochondrial morphology in the brains of 3 out of 4 animals examined (FIG. 14). […]
# MEFs were washed twice with PBS and fixed with 4% paraformaldehyde for 10 min at RT. […] NADH/NADPH autofluorescence was detected with 740 nm excitation and 450±50 nm detectors using a Mai Tai two-photon laser. Fluorescence microscopy was performed on a Zeiss LSM 780 confocal using a 63× oil objective with a […] numerical aperture (NA) or using a Nikon TE2000-S inverted epifluorescence microscope with a 100× oil objective (1.3 NA) and a Photometrics CoolSNAP ES2 monochrome CCD camera. […]
# [6] = 120 mg/kg by oral gavage, prior studies
# ARF6, sequence (P62330 whole entry, species assumed): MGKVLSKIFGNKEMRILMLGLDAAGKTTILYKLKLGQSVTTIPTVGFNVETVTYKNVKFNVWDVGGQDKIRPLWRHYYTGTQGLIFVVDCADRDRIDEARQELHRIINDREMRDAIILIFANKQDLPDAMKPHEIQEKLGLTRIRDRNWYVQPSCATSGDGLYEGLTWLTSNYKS
smiles,measurement,setting,value
CCCCCCCCc1ccc([C@H]2CCN[C@@H]2CO)cc1.Cl [compound 893],Effect on ARF6,[1],inactivates
same,Effect on GLUT1,[2],down-regulate GLUT1
same,Amino acid-dependent mTORC1 signaling,[3]; [6],reduces amino acid-dependent mTORC1 signaling
same,"Toxicity (blood chemistry, complete blood count, liver and small intestine histology)",[3]; [6],without toxicity
same,Tumor growth,[3]; [6],inhibits tumor growth
same,Hepatotoxicity,"[3]; chronic treatment with the high dose, otherwise healthy tumor-bearing mice",not hepatotoxic
same,Fasting glucose and glucose disposal (OGTT),[4]; 60 mg/kg three days a week for 25 days,intermediate effect
same,Fasting glucose and glucose disposal (OGTT),[4]; 120 mg/kg three days a week for 25 days,normalized both fasting glucose and glucose disposal
same,Animals with reversal of HFD-induced changes in brain mitochondrial morphology,[5],3 out of 4
